Assay results as given in patent US9745321B2, “Fused pyrimidine compound, intermediate, preparation method therefor, and composition and application thereof” (SHANGHAI YINGLI PHARMACEUTICAL CO., LTD, priority 2013, dated 2017).

Columns and labels:
[1] = test system: Raji cells; test: Inhibition of TNF-α generation of human Raji cell induced by human IgM; assay type: cell-based; conditions: 10 μg/ml IgM stimulation, 24 hrs, ELISA
Description: Screening Test for a Drug on Inhibiting TNF-α Generation of Human Raji Cell Induced by Human IgM
• 1. Raji cell lines (source of human Burkitt's lymphoma) were employed. • 2. 1×10^5/well Raji cells were plated onto a 96-well cell culture plate. • 3. Compounds to be screened were diluted to the corresponding test concentrations and added into the cell culture system 30 minutes before IgM stimulation. • 4. 10 μg/ml IgM monoclonal antibody was added into the cell culture system to stimulate the cells generating TNF-α. • 5. 24 hrs later, the amount of TNF-α generated by the cell system was measured by ELISA method. • 6.

[2] = biological target: PI3Kδ (Homo sapiens (Human), UniProt O00329); test: PI3Kδ enzyme activity inhibition IC50 evaluation assay; assay type: biochemical; conditions: luminescence, 25 μM ATP, 50 μM PIP2, 2 hrs room temperature
Chain of PI3Kδ (O00329 whole entry): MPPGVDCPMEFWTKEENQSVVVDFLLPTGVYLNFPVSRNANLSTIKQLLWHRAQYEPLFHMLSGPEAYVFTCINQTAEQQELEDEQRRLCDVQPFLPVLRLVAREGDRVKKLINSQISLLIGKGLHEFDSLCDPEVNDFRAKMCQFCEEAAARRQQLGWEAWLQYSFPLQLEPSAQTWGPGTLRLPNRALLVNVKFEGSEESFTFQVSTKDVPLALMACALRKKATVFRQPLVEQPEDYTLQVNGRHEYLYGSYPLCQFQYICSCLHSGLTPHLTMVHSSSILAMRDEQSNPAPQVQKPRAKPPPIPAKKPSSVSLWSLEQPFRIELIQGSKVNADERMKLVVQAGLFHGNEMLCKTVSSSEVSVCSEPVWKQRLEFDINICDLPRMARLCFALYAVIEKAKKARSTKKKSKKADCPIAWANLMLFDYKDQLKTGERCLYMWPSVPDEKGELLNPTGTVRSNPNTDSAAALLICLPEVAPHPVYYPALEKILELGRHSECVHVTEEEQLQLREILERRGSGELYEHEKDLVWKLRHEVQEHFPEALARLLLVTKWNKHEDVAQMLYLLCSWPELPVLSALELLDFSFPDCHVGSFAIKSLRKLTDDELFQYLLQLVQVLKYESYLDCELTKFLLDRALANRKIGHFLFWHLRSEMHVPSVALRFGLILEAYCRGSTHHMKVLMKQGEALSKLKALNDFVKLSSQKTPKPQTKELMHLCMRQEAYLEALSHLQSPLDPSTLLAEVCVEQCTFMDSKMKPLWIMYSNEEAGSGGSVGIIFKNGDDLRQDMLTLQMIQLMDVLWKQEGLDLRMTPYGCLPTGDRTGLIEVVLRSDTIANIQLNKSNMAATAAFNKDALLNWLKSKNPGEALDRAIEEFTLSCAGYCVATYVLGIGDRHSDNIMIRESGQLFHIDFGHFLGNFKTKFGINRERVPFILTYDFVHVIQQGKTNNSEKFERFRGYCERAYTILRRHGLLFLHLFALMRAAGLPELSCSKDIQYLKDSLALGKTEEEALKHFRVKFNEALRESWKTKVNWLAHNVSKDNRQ
Chain of PI3Kδ (P27986 whole entry partner): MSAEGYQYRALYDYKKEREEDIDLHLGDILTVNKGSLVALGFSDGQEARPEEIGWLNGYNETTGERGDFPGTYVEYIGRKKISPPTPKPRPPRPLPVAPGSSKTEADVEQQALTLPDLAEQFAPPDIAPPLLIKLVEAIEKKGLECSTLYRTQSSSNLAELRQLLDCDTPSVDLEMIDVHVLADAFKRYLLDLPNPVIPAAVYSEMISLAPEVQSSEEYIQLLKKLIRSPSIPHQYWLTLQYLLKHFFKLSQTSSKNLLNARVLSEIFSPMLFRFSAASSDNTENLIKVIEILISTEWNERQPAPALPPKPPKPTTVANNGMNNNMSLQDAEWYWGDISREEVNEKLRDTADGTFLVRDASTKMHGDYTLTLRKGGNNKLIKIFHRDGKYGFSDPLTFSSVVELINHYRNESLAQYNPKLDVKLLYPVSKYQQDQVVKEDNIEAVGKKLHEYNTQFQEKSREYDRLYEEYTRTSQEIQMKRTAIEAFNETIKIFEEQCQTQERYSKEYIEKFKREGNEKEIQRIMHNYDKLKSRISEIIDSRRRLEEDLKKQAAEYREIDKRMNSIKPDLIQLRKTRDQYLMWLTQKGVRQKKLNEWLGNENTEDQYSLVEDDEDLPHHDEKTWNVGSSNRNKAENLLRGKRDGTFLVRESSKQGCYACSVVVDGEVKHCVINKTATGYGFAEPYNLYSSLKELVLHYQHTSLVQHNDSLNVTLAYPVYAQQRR
Description: (§1) PI3Kα, PI3Kδ, PI3Kβ and PI3Kγ Enzyme Activity Inhibition IC50 Evaluation Assay
• 1. Buffer preparation: 50 mM HEPES, pH 7.5, 3 mM MgCl2, 1 mM EGTA, 100 mM NaCl, 0.03% CHAPS. • 2. Compound was formulated in 100% DMSO in a concentration gradient, and added to a 384-well plate to a final DMSO concentration of 1%. • 3. PI3Kα, PI3Kδ, PI3Kβ and PI3Kγ enzymes were diluted to an optimum concentration with the following buffer: 50 mM HEPES, pH 7.5, 3 mM MgCl2, 1 mM EGTA, 100 mM NaCl, 0.03% CHAPS, 2 mM DTT, and transferred to a 384-well plate and incubated with the compound for a certain time. • 4. […] For PI3Kβ and PI3Kγ, it was still necessary to further add 10 μL ADP-Glo Detection Reagent, and then equilibrated at room temperature for 30 minutes. • 5. Read Luminescense with FlexStation, and calculate the inhibition rate as the average of two tests.

[3] = biological target: PI3Kα (Homo sapiens (Human), UniProt P42336); test: PI3Kα enzyme activity inhibition IC50 evaluation assay; assay type: biochemical; conditions: ratio PI3Kα vs PI3Kδ
Chain of PI3Kα (P42336 whole entry): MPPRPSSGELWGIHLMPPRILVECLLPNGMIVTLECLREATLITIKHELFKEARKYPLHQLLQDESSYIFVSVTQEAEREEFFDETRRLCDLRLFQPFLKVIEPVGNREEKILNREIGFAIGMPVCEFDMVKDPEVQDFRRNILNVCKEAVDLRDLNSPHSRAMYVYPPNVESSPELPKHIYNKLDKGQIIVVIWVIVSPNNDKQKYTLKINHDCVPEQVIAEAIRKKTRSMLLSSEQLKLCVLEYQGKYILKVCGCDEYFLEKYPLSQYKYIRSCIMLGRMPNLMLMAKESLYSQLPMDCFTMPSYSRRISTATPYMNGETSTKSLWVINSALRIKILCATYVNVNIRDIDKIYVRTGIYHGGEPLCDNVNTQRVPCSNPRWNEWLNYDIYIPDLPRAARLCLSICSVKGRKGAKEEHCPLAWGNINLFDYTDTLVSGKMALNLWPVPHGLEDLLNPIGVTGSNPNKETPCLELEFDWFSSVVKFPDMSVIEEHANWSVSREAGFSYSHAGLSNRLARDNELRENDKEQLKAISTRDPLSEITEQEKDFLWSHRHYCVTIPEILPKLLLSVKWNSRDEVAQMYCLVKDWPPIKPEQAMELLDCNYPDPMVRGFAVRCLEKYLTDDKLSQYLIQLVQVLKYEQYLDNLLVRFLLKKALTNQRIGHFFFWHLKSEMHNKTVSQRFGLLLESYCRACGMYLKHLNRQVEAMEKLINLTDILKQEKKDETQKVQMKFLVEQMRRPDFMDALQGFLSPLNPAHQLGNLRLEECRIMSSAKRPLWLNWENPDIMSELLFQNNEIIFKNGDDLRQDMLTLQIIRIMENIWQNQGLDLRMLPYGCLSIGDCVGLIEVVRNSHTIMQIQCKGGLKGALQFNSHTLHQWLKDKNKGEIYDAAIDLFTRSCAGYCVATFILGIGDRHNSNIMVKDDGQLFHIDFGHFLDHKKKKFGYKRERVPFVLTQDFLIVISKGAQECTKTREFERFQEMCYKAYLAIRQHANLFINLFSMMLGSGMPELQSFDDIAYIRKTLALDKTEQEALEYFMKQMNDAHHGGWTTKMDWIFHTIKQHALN
Chain of PI3Kα (P27986 whole entry partner): as the sequence (P27986 whole entry partner) above
Description: as §1
• 1. Buffer preparation: 50 mM HEPES, pH 7.5, 3 mM MgCl2, 1 mM EGTA, 100 mM NaCl, 0.03% CHAPS. • 2. Compound was formulated in 100% DMSO in a concentration gradient, and added to a 384-well plate to a final DMSO concentration of 1%. • 3. PI3Kα, PI3Kδ, PI3Kβ and PI3Kγ enzymes were diluted to an optimum concentration with the following buffer: 50 mM HEPES, pH 7.5, 3 mM MgCl2, 1 mM EGTA, 100 mM NaCl, 0.03% CHAPS, 2 mM DTT, and transferred to a 384-well plate and incubated with the compound for a certain time. • 4. Substrate was diluted to an optimum concentration with the following buffer: 50 mM HEPES, pH 7.5, 3 mM MgCl2, 1 mM EGTA, 100 mM NaCl, 0.03% CHAPS, 2 mM DTT, 50 μM PIP2, 25 μM ATP; then added to a 384-well plate to initiate the reaction, and for PI3Kα, PI3Kβ and PI3Kγ at room temperature reacted for 1 hr, for PI3Kδ at room temperature reacted for 2 hrs. For PI3Kβ and PI3Kγ, it was still necessary to further add 10 μL ADP-Glo Detection Reagent, and then equilibrated at room temperature for 30 minutes. • 5. Read Luminescense with FlexStation, and calculate the inhibition rate as the average of two tests.

IC50 ([1]; Homo sapiens) [nM] | IC50 [2] [nM] | α/δ selectivity [3] | IC50 [1] [nM] | SMILES
– | 17 | 17 | 5.7 | COc1ncc(-c2nc(N3CCOCC3)nc3c(CN4CCN(C(=O)CC#N)CC4)c(C)sc23)cc1NS(C)(=O)=O [Compound 100]
– | 32 | 107 | – | COc1ncc(-c2nc(N3CCOCC3)nc3c(CN4CCc5sccc5C4)c(C)sc23)cc1NS(C)(=O)=O [Compound 143]
– | 3.4 | 56 | – | COc1ncc(-c2nc(N3CCOCC3)nc3c(CN4CCn5ccnc5C4)c(C)sc23)cc1NS(C)(=O)=O [Compound 144]
– | 3.8 | 287 | – | COc1ncc(-c2nc(N3CCOCC3)nc3c(CN4CCC(OC(C)C)CC4)c(C)sc23)cc1NS(C)(=O)=O [Compound 145]
– | 2.9 | 120 | – | COc1ncc(-c2nc(N3CCOCC3)nc3c(CN4CCC(N5CC(F)(F)C5)CC4)c(C)sc23)cc1NS(C)(=O)=O [Compound 146]
– | 15 | 41 | – | COc1ncc(-c2nc(N3CCOCC3)nc3c(CN4CC(C(C)(C)O)C4)c(C)sc23)cc1NS(C)(=O)=O [Compound 151]
– | 15.6 | 12 | – | COc1ncc(-c2nc(N3CCOCC3)nc3c(OC4CCOCC4)c(C)sc23)cc1NS(C)(=O)=O [Compound 152]

The remaining lines, values behind:

SMILES | IC50 ([1]; Homo sapiens) [nM] | IC50 [2] [nM] | α/δ selectivity [3] | IC50 [1] [nM]
CC[C@H](Nc1ncnc2[nH]cnc12)c1nc2cccc(F)c2c(=O)n1-c1ccccc1 [CAL-101, idelalisib, reference compound] | 29.8 | – | – | –
c1cc(-c2nc(N3CCOCC3)nc3c(CN4CCN(C5CCOCC5)CC4)csc23)c2cc[nH]c2c1 [Compound 10] | – | 25 | >400 | 28
c1cc(-c2nc(N3CCOCC3)nc3c(CN4CCN(C5COC5)CC4)csc23)c2cc[nH]c2c1 [Compound 11] | – | 17 | >588 | 41.1
CC(=O)N1CCN(Cc2csc3c(-c4cccc5[nH]ccc45)nc(N4CCOCC4)nc23)CC1 [Compound 14] | – | 3.8 | 700 | 25.6
COc1ncc(-c2nc(N3CCOCC3)nc3c(CN4CCC(C(C)(C)O)CC4)c(C)sc23)cc1NS(C)(=O)=O [Compound 60] | – | 7.1 | 147 | 2
COc1ncc(-c2nc(N3CCOCC3)nc3c(CN4CCN(C(=O)CO)CC4)c(C)sc23)cc1NS(C)(=O)=O [Compound 71] | – | 6.8 | 13 | 8.6
COc1ncc(-c2nc(N3CCOCC3)nc3c(CN4CCC(C(C)(C)O)CC4)c(C)sc23)cc1NS(=O)(=O)C1CC1 [Compound 79] | – | 9.4 | 582 | 14.5
COc1ncc(-c2nc(N3CCOCC3)nc3c(CN4CCC(OC)CC4)c(C)sc23)cc1NS(=O)(=O)C1CC1 [Compound 81] | – | 24 | 374 | 43
COc1ncc(-c2nc(N3CCOCC3)nc3c(CN4CCN(C(=O)C(F)(F)F)CC4)c(C)sc23)cc1NS(=O)(=O)C1CC1 [Compound 82] | – | 15 | 143 | 76.8
COc1ncc(-c2nc(N3CCOCC3)nc3c(CN4CCN(CC(F)(F)F)CC4)c(C)sc23)cc1NS(=O)(=O)C1CC1 [Compound 84] | – | 47 | >213 | 30.4
COc1ncc(-c2nc(N3CCOCC3)nc3c(CN4CCN(C(C)(C)C)CC4)c(C)sc23)cc1NS(C)(=O)=O [Compound 89] | – | 2.6 | 48 | 1.3
COc1ncc(-c2nc(N3CCOCC3)nc3c(CN4CCN(C(=O)C(F)(F)F)CC4)c(C)sc23)cc1NS(C)(=O)=O [Compound 90] | – | 4.9 | 69 | 31.2
COc1ncc(-c2nc(N3CCOCC3)nc3c(CN4CCN(C(C)C)CC4)c(C)sc23)cc1NS(C)(=O)=O [Compound 91] | – | 3.2 | 60 | 3.4
